One test deals with active TGF-β. Briefly: Active TGF-β level in lung tissue, bleomycin (BLM) mouse lung fibrosis model. The format is in vivo. To be noted: single intratracheal dose 3 mg/kg on Day 7, lung 24 h later; BLM model group = 100.00. The source says:
This Example was to evaluate the inhibitory effect of polypeptides on active TGF-β level during the progression of fibrotic disease. In this Example, a mouse lung fibrosis model induced by bleomycin (BLM) was used. The BLM animal model offers advantages, including a close mimicry of the pathological features of the primary disease, ease of use, and good reproducibility. It is the most representative model for studying the mechanisms of fibrosis and is recommended for evaluating drug efficacy.
In this Example, 6 to 8-week-old male C57/6J mice weighing 18-20 g were used as subjects for the study. The experimental animals were randomized into groups, 8 animals in each group, and the expressions of pro-fibrotic factors were detected at the endpoint of the experiment (Day 8) in this model. In this example, an aerosol intratracheal metered dosing applicator (Yuyan, model YAN30012) was utilized for intratracheal administration during the modeling and drug delivery processes. The dosing was performed as follows (An Official American Thoracic Society Workshop Report: Use of Animal Models for the Preclinical Assessment of Potential Therapies for Pulmonary Fibrosis, Am J Respir Cell Mol Biol Vol 56, Iss 5, pp 667-679, May 2017): The experimental animals were anesthetized with aerosolized isoflurane (RWD, lot no. 22041701) using a small animal anesthesia machine (RWD, model R500IE). Animals in the appropriate anesthetic state were positioned supine with heads facing up and bodies tilted on an operating platform (tilted at approximately) 60°, secured by their incisors. The practitioner gently lifted the tongue with tissue forceps in the right hand, pushing it outward and upward to open the animal's lower jaw. Holding the laryngoscope (Yuyan, model SR310-RW) in the left hand, the practitioner slid its anterior leaf-shaped blade along the midline of the tongue into the oral cavity until reaching the glottis, gently pressing the body and root of the tongue upward. The needle of the drug applicator was then inserted through the mouth into the glottis alongside the laryngoscope, and 50 μL of liquid was quickly injected. On the day of modeling (Day 1), the experimental animals were randomly assigned to groups and administered a 0.7 USP/kg dose of bleomycin solution (HanHui Pharmaceutical, Batch No. 20080511) via the tracheal route to induce the model. On Day 7, each peptide-treated group received a single intratracheal dose of 50 μL peptide drug (at a dosage of 3 mg/kg), while the model group was given an equal volume of solvent (saline, Kelong, Batch No. L221062501) as a control. Twenty-four hours after drug administration, the animals were dissected to collect lung tissue, which was ground in liquid nitrogen to extract total protein from the lung tissue. The active TGF-β content in the lung tissue of mice from each group was measured using the TGF-β ELISA kit (BOSTER, catalog number EK0515). The ratio of active TGF-β content between the peptide-treated group and the model group was calculated to evaluate the effect of the peptide on active TGF-β level.

The next test relates to P-Smad2/3. As to the kind of experiment: P-Smad2/3 content in lung tissue, BLM mouse fibrosis model. It counts as in vivo. The following applies: single intratracheal dose 3 mg/kg on Day 7, lung 24 h later; BLM model group = 100.00. The source says: This example aimed to evaluate the inhibitory effect of polypeptides on the TGF-β downstream signaling pathway during fibrosis progression. TGF-β intracellular signaling relies on the phosphorylation events of Smad family proteins. The increase in Smad2/3 phosphorylation levels is an important indicator that signal transduction has occurred in the TGF-β signaling pathway.
In this example, 6- to 8-week-old male C57/6J mice weighing 18-20 g were used as subjects for the study. The experimental animals were randomized into groups, eight animals in each group. In this example, intratracheal administration was performed using an aerosol intratracheal metered dosing applicator during both the modeling and drug delivery processes, as described in Example 4. On the day of modeling (Day 1), the experimental animals were randomly assigned to groups and administered a 0.7 USP/kg dose of bleomycin solution (HanHui Pharmaceutical, Batch No. 20080511) via the tracheal route to induce the model. On Day 7, each peptide-treated group received a single intratracheal dose of peptide drug at a dosage of 3 mg/kg, while the BLM model group was given an equal volume of solvent (saline) as a control. Twenty-four hours after drug administration, the animals were dissected, and the lung tissues were collected and frozen in liquid nitrogen for future use. Total protein from the lung tissue was extracted after grinding the tissue in liquid nitrogen, and the total P-Smad2/3 content in the tissue was measured by using P-Smad2/3 ELISA kit (CST, Catalog No. 12001C). The ratio of the P-Smad2/3 content between the peptide-treated group and the model group was calculated to evaluate the effect of the peptide on TGFβ signaling.

In test [1] the test system is TSP-1-dependent TGF-β activation. Briefly: TSP-1-dependent TGF-β activation in PMA-differentiated THP-1 cells with 293-TGFβ Res reporter cells. To be noted: 100 μM polypeptide, 24 h; ratio to negative control group (1.00). It counts as cell-based. As for the experimental part: In this Example, the inhibitory effects of the polypeptides on TSP-1-dependent TGF-β activation were detected using a model based on a high TSP-1 expressing cell. In the assay, THP-1 cells (American Typical Culture Collection, ATCC, TIB-20) were induced by phorbol ester (Phorbol 12-myristate 13-acetate, PMA) (Sigma, Catalog No. P1585) and differentiated into macrophage-like cells with distinct macrophage expression profiles.
The experiment was performed as follows: THP-1 cells were inoculated in a 96-well plate, and treated with 300 nM PMA for differentiation and adherence to form macrophage-like cells. 100 μM polypeptide was added (For the negative control group, an equal volume of PBS (the solvent for the polypeptide) was added, while the positive control group received an equal concentration of the polypeptide shown in SEQ ID NO: 50.) The cells were treated for 24 hours, and then a 293 reporter cell strain, 293-TGFβ Res cell strain (novoprotein, Catalog No. XCC03-1), was added for detecting TGF-β activity, and co-cultivated for 24 hours. Bio-Lite Luciferase Assay lysate comprising fluorescent substrate (Vazyme, Catalog No. DD1201-01) was added, and the fluorescent intensity was detected using a multifunctional microplate reader (TECAN, model Infinite 200 Pro). The inhibitory effect of the polypeptide on TGF-β activation was assessed by calculating the ratio of the fluorescence signal from the polypeptide-treated groups to that of the negative control group.

The target in test [2] is T1, binding of TSP-1 protein to CD36, a TSP-1 receptor protein (Homo sapiens, UniProt P07996).
T1 construct: purchased novoprotein (TSP-1); R&D Systems (Fc-tagged CD36) CU45 (TSP-1); 1955-CD-050 (CD36-Fc)
As to the kind of experiment: ELISA: blocking of CD36 binding to TSP-1 protein. To be noted: for inhibition at 100 µM: 3 h, 100 μM polypeptide, 0.25 μg/mL Fc-tagged CD36, blocking of CD36 binding to TSP-1, read-out: Blocking rate (Mean, %); for IC50: concentrations 0-100 μM. As for the experimental part:
ELISA assay was performed to detect the ability of the polypeptides to block the binding of TSP-1 protein to CD36, a TSP-1 receptor protein. TSP-1 protein (novoprotein, Catalog No. CU45) was diluted to 2 μg/mL using 100 mM carbonate buffer and added to sample wells (100 μL/well) of a 96-well ELISA plate (Thermo, Catalog No. 437111), and incubated overnight at 4° C.; after washing the plate twice using 1×PBST wash solution, 200 μL of 1.5% BSA (Sigma, Catalog No. B2064) was added to each well, and incubated at 37° C. for 2 h; after washing the plate 3 times using 1×PBST wash solution, the analytes were added (100 μL/well, 3 replicate wells; for the control group, 0.25 μg/mL of Fc-tagged CD36 protein (R&D Systems, Catalog No. 1955-CD-050); and for the polypeptide-treated groups, a mixture containing Fc-tagged CD36 protein and polypeptide at final concentrations of 0.25 μg/mL and 100 μM, respectively), and incubated at 37° C. for 3 h. After washing the plate 5 times using 1×PBST wash solution, a 1:500 dilution solution of FITC-labeled anti-Fc-tagged antibody (Beyotime, Catalog No. A0556) was added, and incubated for 1 h at 37° C.; after washing the plate 5 times using 1×PBST wash solution, a multifunctional ELISA instrument (TECAN, model: Infinite 200 Pro) was used to detect the intensity of FITC fluorescence signal in each sample well. The ability of the polypeptides to block CD36 binding to TSP-1 protein (Table 2-1) was assessed by calculating the ratio of the fluorescence signal from the polypeptide-treated groups to that of the control group, allowing for the determination of the blocking rate of the polypeptides in inhibiting CD36 binding to TSP-1 protein, i.e., (fluorescence signal of the control group-fluorescence signal of the polypeptide-treated group)/fluorescence signal of the control group×100%. Based on the blocking rate results obtained at the single concentration and on the polypeptide molecule properties, the preferred polypeptide molecules were assayed for concentration dependence (at 0 μM, 0.5 μM, 1 μM, 5 μM, 10 μM, and 100 μM), and IC50 values of the polypeptides for blocking CD36 binding to TSP-1 protein were determined to further assess the abilities of the preferred polypeptide molecules to block the binding of CD36 to TSP-1 (Table 2-2).

For test [3], the system named is mouse lung fibrosis model induced by bleomycin (BLM). Briefly: Inflammatory and fibrotic pathology (HE, Masson's trichrome) in BLM mouse fibrosis model. The format is in vivo. Details: scale not given here. As for the experimental part:
This Example was to assess the inhibitory effect of polypeptides on fibrotic pathology. 6- to 8-week-old male C57/6J mice weighing 18-20 g were used as subjects for the study. The experimental animals were randomized into groups, 6 animals in each group. On the day of modeling (Day 1), a single dose of 0.7 USP/kg of BLM solution was administered via the tracheal route to the BLM group and each peptide-treated group to induce the model. The negative control group received an equal volume of saline. Treatment dosing started on Day 8. Each peptide-treated group received the peptide drug intratracheally at a dosage of 3 mg/kg, while the positive control group received the peptide of SEQ ID NO: 50 at the same dosage, and the administration frequency was twice a week, with a total of 4 administrations. The BLM model group and the negative control group received an equal volume of solvent (saline) as a control. The procedure followed that described in Example 4.
On Day 21, the lung tissues were dissected, washed with saline to remove blood stains, and dried with gauze. Histopathological analysis was then performed on the dissected lung tissues. The lung tissues were perfused with 0.5 mL of paraformaldehyde via the trachea and placed in 4 mL of paraformaldehyde. A small amount of gauze was added to ensure the lung tissues were completely immersed in the fixative solution. The tissues were fixed for more than 24 hours. One lobe of the left lung and four lobes of the right lung were trimmed to the maximum coronal plane, placed in an embedding cassette, dehydrated overnight, and then paraffin-embedded to make 3 μm sections. An autostainer (Leica, model ST5010) was used for Hematoxylin (Herst, lot no. 201905)-Eosin (Chron, lot no.2018070301) (HE) staining, and MASSON'S trichrome (Celestineblue, Chron, lot no. MKCH8129; Aniline blue, Yuanye, lot no. H70J11S115483; Ponceau, Sigma, lot no. SHBM2047) staining. After mounting the sections, they were scanned using a digital panoramic scanner (Zhiyue, model WS-10). For each lung lobe, ≤10 visual fields were captured under a 20× magnification. The severity of inflammation and the severity of fibrosis were assessed using HE staining and Masson's trichrome staining, respectively, to evaluate the inhibitory effects of the polypeptides on inflammatory infiltration and fibrotic deposition at pathological fibrotic sites.

T1 sequence (P07996 19-1170): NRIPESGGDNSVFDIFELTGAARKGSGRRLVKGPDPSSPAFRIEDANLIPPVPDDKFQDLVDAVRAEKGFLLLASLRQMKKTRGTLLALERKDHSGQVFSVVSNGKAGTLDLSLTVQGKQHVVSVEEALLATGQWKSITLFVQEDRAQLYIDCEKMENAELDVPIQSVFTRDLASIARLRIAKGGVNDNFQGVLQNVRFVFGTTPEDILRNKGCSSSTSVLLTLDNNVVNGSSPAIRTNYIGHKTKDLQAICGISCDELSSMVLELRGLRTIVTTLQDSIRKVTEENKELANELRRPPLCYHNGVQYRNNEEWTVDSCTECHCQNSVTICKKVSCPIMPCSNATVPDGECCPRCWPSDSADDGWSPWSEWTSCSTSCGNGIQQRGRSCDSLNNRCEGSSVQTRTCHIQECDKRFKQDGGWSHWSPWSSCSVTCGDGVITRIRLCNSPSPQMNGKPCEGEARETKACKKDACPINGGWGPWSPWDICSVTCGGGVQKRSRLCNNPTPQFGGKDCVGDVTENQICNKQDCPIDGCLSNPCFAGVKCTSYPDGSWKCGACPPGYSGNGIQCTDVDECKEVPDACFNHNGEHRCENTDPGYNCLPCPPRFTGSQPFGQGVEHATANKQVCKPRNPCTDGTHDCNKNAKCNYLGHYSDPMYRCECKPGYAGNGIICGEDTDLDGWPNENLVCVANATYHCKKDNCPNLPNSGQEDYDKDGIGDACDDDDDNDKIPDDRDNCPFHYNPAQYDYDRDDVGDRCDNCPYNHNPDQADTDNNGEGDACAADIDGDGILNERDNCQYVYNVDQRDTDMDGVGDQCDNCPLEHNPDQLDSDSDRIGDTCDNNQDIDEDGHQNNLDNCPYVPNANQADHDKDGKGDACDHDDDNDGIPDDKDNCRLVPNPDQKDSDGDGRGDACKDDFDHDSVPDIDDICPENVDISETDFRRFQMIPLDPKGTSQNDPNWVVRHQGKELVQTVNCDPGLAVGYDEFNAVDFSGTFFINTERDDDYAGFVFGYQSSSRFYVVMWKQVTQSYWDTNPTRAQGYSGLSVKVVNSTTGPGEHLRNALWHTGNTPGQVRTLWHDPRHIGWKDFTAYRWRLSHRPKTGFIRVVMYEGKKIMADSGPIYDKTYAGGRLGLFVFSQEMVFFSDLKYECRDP

In general, IC50 refers to the concentration needed to halve the response being measured. For “Ac-TQDAEDNTAS-NH2 [SEQ ID NO: 24, Ac-Thr-Gln-Asp-Ala-Glu-Asp-Asn-Thr-Ala-Ser-NH2]”, the “active TGF-β content in lung tissue, ratio to model group, Mean(%)” value in the test on active TGF-β was 76.35%. The “P-Smad2/3 content in lung tissue, ratio to model group, Mean(%)” value in the test on P-Smad2/3 came out at 89.89%. In test [1], the “Mean (relative fluorescence intensity)” value is listed as 0.57. In addition, in test [2], the inhibition at 100 µM amounted to 32.6% and the IC50 was determined as 10.6 µM.

Regarding “Ac-TQDAEDNTVSFLQ-NH2 [SEQ ID NO: 36, Ac-Thr-Gln-Asp-Ala-Glu-Asp-Asn-Thr-Val-Ser-Phe-Leu-Gln-NH2]”, the “active TGF-β content in lung tissue, ratio to model group, Mean(%)” value in the test with active TGF-β stood at 77.42%. For the same substance, in the test on P-Smad2/3, the “P-Smad2/3 content in lung tissue, ratio to model group, Mean(%)” value was 79.00%. Moreover, the “Mean (relative fluorescence intensity)” value in test [1] came to 0.83. Besides, the inhibition at 100 µM in test [2] worked out at 23.1%.

Consider “Ac-TQDPEDN-NH2 [SEQ ID NO: 14, Ac-Thr-Gln-Asp-Pro-Glu-Asp-Asn-NH2]”, for which, in the test with active TGF-β, the “active TGF-β content in lung tissue, ratio to model group, Mean(%)” value turned out to be 92.49%. Also, the “P-Smad2/3 content in lung tissue, ratio to model group, Mean(%)” value in the test on P-Smad2/3 worked out at 87.39%. The “Mean (relative fluorescence intensity)” value in test [1] came to 0.70. In addition, the inhibition at 100 µM in test [2] is 27.9%.

On to “H-YRVRFLAKENVTQDAEDN-OH [SEQ ID NO: 50, Tyr-Arg-Val-Arg-Phe-Leu-Ala-Lys-Glu-Asn-Val-Thr-Gln-Asp-Ala-Glu-Asp-Asn, reference compound]”, for which the “Inflammatory score Mean” value in test [3] (3 mg/kg intratracheal twice weekly x4 from Day 8, Day 21, HE staining, BLM model 2.25, negative control 0.36) worked out at 1.98. In addition, the “Fibrosis score Mean” value in test [3] (3 mg/kg intratracheal twice weekly x4 from Day 8, Day 21, Masson's trichrome, BLM model 3.25, negative control 1.01) was 2.81. In addition, the “Mean (relative fluorescence intensity)” value in test [1] is given as 0.84. In test [2], the inhibition at 100 µM amounted to 23.4% and the IC50 was determined as 10.6 µM.

(Values after patent US20250388623A1, “PEPTIDE INHIBITOR AND USE THEREOF” (CHENGDU BRILLIANT INSPIRATION BIOTHERAPEUTICS CO., LTD, priority 2022, published 2025).)
